Assay results taken from ChEMBL document CHEMBL5505982, “Design, synthesis, biological evaluation and in silico studies of novel quinoline derivatives as potential radioprotective molecules targeting the TLR2 and p53 pathways” (Eur J Med Chem, 2024).
Calls of active or inactive are those of the source. The calls are words filed in the database; no cut-off is given here.

Experiments:
AHH-1 [1] = experiment: Induction of apoptosis in human AHH-1 cells assessed as early apoptotic cells preincubated with compound for 24 hrs followed by irradiation with 8 Gy and measured after 24 hrs of radiation by Annexin V-FITC/PI staining based flow cytometry analysis (reference value: 16.5%); format: functional; settings: time 48 hrs
Mus musculus [2] = experiment: Radioprotective activity in irradiated C57BL/6J mouse model assessed as increase in WBC count at 300 mg/kg, ip preincubated with compound for 15 to 1440 mins followed by irradiation with 6.5 Gy and measured on day 1 (reference value: 43.39%); format: functional; settings: time 15-2880 min
AHH-1 [3] = experiment: Induction of apoptosis in human AHH-1 cells assessed as viable cells preincubated with compound for 24 hrs followed by irradiation with 6 Gy and measured after 24 hrs of radiation by Annexin V-FITC/PI staining based flow cytometry analysis (reference value: 52.3%); format: functional; settings: time 48 hrs
AHH-1 [4] = experiment: Induction of apoptosis in human AHH-1 cells assessed as viable cells preincubated with compound for 24 hrs followed by irradiation with 4 Gy and measured after 24 hrs of radiation by Annexin V-FITC/PI staining based flow cytometry analysis (reference value: 66.9 %); format: functional; settings: time 48 hrs
AHH-1 [5] = experiment: Induction of apoptosis in human AHH-1 cells assessed as late apoptotic cells preincubated with compound for 24 hrs followed by irradiation with 8 Gy and measured after 24 hrs of radiation by Annexin V-FITC/PI staining based flow cytometry analysis (reference value: 33.6%); format: functional; settings: time 48 hrs
Mus musculus [6] = experiment: Radioprotective activity in irradiated C57BL/6J mouse model assessed as increase in platelets count at 300 mg/kg, ip preincubated with compound for 15 to 1440 mins followed by irradiation with 6.5 Gy and measured after 2 days of radiation; format: functional, organism-based; settings: time 15-4320 min
AHH-1 [7] = experiment: Induction of apoptosis in human AHH-1 cells assessed as necrotic cells preincubated with compound for 24 hrs followed by irradiation with 8 Gy and measured after 24 hrs of radiation by Annexin V-FITC/PI staining based flow cytometry analysis (reference value: 4.86%); format: functional; settings: time 48 hrs
Mus musculus [8] = experiment: Radioprotective activity in C57BL/6J mouse assessed as increase in body weight at 30 mg/kg, ip preincubated with compound for 15 to 1440 mins followed by irradiation and measured after 10, 14, 18, 22 and 30 days; format: functional, organism-based; settings: time 15-44640 min
Mus musculus [9] = experiment: Radioprotective activity in irradiated C57BL/6J mouse model assessed as increase in HGB count at 300 mg/kg, ip preincubated with compound for 15 to 1440 mins followed by irradiation with 6.5 Gy and measured after 1 to 10 days of radiation; format: functional, organism-based
Toll-like receptor 2 [10] = biological target: T1, Toll-like receptor 2 (Homo sapiens, UniProt O60603); experiment: Agonist activity at TLR2 in human HUVEC cells assessed as increase in p65 level pretreated with compound for 24 hrs in presence of ionizing irradiation by Western blotting analysis; format: cell-based; settings: filed as agonist
Mus musculus [11] = experiment: Radioprotective activity in irradiated C57BL/6J mouse model assessed as increase in WBC count at 300 mg/kg, ip preincubated with compound for 15 to 1440 mins followed by irradiation with 6.5 Gy and measured after 10 to 13 days of radiation relative to Ex-RAD/control; format: functional, organism-based
Mus musculus [12] = experiment: Radioprotective activity in irradiated C57BL/6J mouse model assessed as increase in platelets count at 300 mg/kg, ip preincubated with compound for 15 to 1440 mins followed by irradiation with 6.5 Gy and measured after 3 to 10 days of radiation; format: functional, organism-based
Mus musculus [13] = experiment: Radioprotective activity in C57BL/6J mouse assessed as survival rate at 30 mg/kg, ip preincubated with compound for 15 to 1440 mins followed by irradiation and measured at day 30; format: functional; settings: light or radiation study, time 15-44640 min
AHH-1 [14] = experiment: Induction of apoptosis in human AHH-1 cells assessed as late apoptotic cells preincubated with compound for 24 hrs followed by irradiation with 6 Gy and measured after 24 hrs of radiation by Annexin V-FITC/PI staining based flow cytometry analysis (reference value: 29.8%); format: functional; settings: time 48 hrs
Mus musculus [15] = experiment: Radioprotective activity in irradiated C57BL/6J mouse model assessed as increase in HGB count at 300 mg/kg, ip preincubated with compound for 15 to 1440 mins followed by irradiation with 6.5 Gy and measured after 13 days of radiation; format: functional, organism-based; settings: time 15-20160 min
Mus musculus [16] = experiment: Radioprotective activity in C57BL/6J mouse assessed as increase in WBC count at 300 mg/kg, ip preincubated with compound for 15 to 1440 mins followed by irradiation at 6.5 Gy and measured at 1 to 10 days relative to Ex/RAD/control; format: functional, organism-based
Mus musculus [17] = experiment: Radioprotective activity in irradiated C57BL/6J mouse model assessed as increase in platelets count at 300 mg/kg, ip preincubated with compound for 15 to 1440 mins followed by irradiation with 6.5 Gy and measured after 14 days of radiation relative to Ex-rad/control; format: functional, organism-based; settings: time 15-21600 min
AHH-1 [18] = experiment: Induction of apoptosis in human AHH-1 cells assessed as necrotic cells preincubated with compound for 24 hrs followed by irradiation with 6 Gy and measured after 24 hrs of radiation by Annexin V-FITC/PI staining based flow cytometry analysis (reference value: 3.71%); format: functional; settings: time 48 hrs
Toll-like receptor 2 [19] = biological target: T1, Toll-like receptor 2; experiment: Agonist activity at TLR2 in human HUVEC cells assessed as increase in MyD88 level pretreated with compound for 24 hrs in presence of ionizing irradiation by Western blotting analysis; format: cell-based; settings: filed as agonist
Mus musculus [20] = experiment: Radioprotective activity in irradiated C57BL/6J mouse model assessed as increase in HGB count at 300 mg/kg, ip preincubated with compound for 15 to 1440 mins followed by irradiation with 6.5 Gy and measured after 10 days of radiation relative to Ex-rad/control; format: functional, organism-based; settings: time 15-15840 min
AHH-1 [21] = experiment: Induction of apoptosis in human AHH-1 cells assessed as early apoptotic cells preincubated with compound for 24 hrs followed by irradiation with 6 Gy and measured after 24 hrs of radiation by Annexin V-FITC/PI staining based flow cytometry analysis (reference value: 14.1%); format: functional; settings: time 48 hrs
AHH-1 [22] = experiment: Cytotoxicity against human AHH-1 cells assessed as inhibition of cell growth incubated for 24 hrs by CCK-8 assay; format: functional, cell-based; settings: AHH-1, 24 h
AHH-1 [23] = experiment: Induction of apoptosis in human AHH-1 cells assessed as late apoptotic cells preincubated with compound for 24 hrs followed by irradiation with 4 Gy and measured after 24 hrs of radiation by Annexin V-FITC/PI staining based flow cytometry analysis (reference value: 17.7%); format: functional; settings: time 48 hrs
Mus musculus [24] = experiment: Radioprotective activity in C57BL/6J mouse model assessed as upregulation of IL-6 expression at 300 mg/kg, ip measured after 2 hrs of 7.5 Gy radiation by ELISA analysis; format: functional, organism-based
AHH-1 [25] = experiment: Induction of apoptosis in human AHH-1 cells assessed as necrotic cells preincubated with compound for 24 hrs followed by irradiation with 4 Gy and measured after 24 hrs of radiation by Annexin V-FITC/PI staining based flow cytometry analysis (reference value: 1.06%); format: functional; settings: time 48 hrs
AHH-1 [26] = experiment: Radioprotective activity against radiation-induced DNA damage in human AHH-1 cells assessed as reduction in gamma-H2AX foci in nucleus preincubated with compound for 24 hrs followed by irradiation with 1.175 Gy/min and measured after 2 hrs of radiation by fluorescence microscopic analysis; format: functional, cell-based; settings: time 26.0 hrs

T1 sequence (O60603 whole entry): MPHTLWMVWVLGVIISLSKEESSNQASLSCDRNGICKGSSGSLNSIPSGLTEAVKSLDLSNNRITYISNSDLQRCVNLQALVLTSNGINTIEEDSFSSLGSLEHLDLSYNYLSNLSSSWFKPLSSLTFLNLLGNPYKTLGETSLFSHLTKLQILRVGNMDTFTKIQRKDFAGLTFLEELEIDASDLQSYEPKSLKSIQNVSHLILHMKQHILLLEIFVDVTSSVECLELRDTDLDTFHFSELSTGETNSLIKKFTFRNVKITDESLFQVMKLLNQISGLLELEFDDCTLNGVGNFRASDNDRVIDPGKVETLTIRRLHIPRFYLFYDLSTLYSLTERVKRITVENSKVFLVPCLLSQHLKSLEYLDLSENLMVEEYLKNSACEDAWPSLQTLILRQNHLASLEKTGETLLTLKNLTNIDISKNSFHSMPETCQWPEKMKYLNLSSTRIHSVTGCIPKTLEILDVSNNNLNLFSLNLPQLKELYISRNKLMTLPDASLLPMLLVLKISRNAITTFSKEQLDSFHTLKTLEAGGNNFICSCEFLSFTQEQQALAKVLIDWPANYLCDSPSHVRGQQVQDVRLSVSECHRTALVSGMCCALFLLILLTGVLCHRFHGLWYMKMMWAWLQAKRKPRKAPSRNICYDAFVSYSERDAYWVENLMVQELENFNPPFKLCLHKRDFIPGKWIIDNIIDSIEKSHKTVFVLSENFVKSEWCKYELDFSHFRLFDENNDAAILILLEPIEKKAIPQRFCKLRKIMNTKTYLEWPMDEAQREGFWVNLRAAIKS

With [O-][S+](Cc1ccc(F)cc1)c1ccc2cc(Br)ccc2n1 (stereo unspecified) as the compound, how does the Activity (AHH-1 [1]) read?
The Activity was 10.8%.

What about the Activity (Mus musculus [2]) of the same compound?
The Activity was 38.66%.

And the Activity (AHH-1 [3])?
The Activity was 67.6%.

What about the Activity (AHH-1 [4]) of the same compound?
The Activity was 72.4%.

What about the Activity (AHH-1 [5]) of the same compound?
The Activity was 17.8%.

What about the Activity (Mus musculus [6]) of the same compound?
Its Activity is “Active”.

And the Activity (AHH-1 [7])?
The Activity was 4%.

What about the Activity (Mus musculus [8]) of the same compound?
Its Activity is “Active”.

What about the Activity (Mus musculus [9]) of the same compound?
Its Activity is “inactive”.

What about the Activity (Toll-like receptor 2 [10]) of the same compound?
The Activity was “Active”.

And the Activity (Mus musculus [11])?
Its Activity is “Active”.

And the Activity (Mus musculus [12])?
Its Activity is “inactive”.

And the survival at 30 mg/kg (Mus musculus [13])?
Its survival at 30 mg/kg is 80%.

What about the Activity (AHH-1 [14]) of the same compound?
Its Activity is 16.2%.

What about the Activity (Mus musculus [15]) of the same compound?
The Activity was “Active”.

What about the Activity (Mus musculus [16]) of the same compound?
Its Activity is “Active”.

And the Activity (Mus musculus [17])?
The Activity was “Active”.

What about the Activity (AHH-1 [18]) of the same compound?
The Activity was 2.55%.

What about the Activity (Toll-like receptor 2 [19]) of the same compound?
The Activity was “Active”.

And the Activity (Mus musculus [20])?
The Activity was “Active”.

What about the Activity (AHH-1 [21]) of the same compound?
Its Activity is 13.7%.

What about the IC50 (AHH-1 [22]) of the same compound?
Its IC50 is 154 µM.

And the Activity (AHH-1 [23])?
Its Activity is 12.2%.

And the Activity (Mus musculus [24])?
Its Activity is “Active”.

What about the Activity (AHH-1 [25]) of the same compound?
The Activity was 1.4%.

What about the Activity (AHH-1 [26]) of the same compound?
Its Activity is “Active”.
